# Data as given in US6015838A, “Aqueous film-forming foam compositions” (3M Innovative Properties Company, priority 1996, dated 2000).
# Assay: Surface tension and critical micelle concentration (CMC) of aqueous surfactant solutions
# Assay type: physicochemical
# Details: Table 3; deionized water
# Source text: Critical Micelle Concentration (CMC): The critical micelle concentration is defined as the concentration at which further surface tension is no longer lowered with increasing levels of surfactant. […] Surface tension is then plotted vs. log concentration and the data points are connected. The resulting curve has a nearly horizontal flat portion at concentrations above the CMC and has a negative steep slope at concentrations below the CMC. The CMC is defined as the lowest surfactant concentration in the horizontal flat portion of the curve.
# (§1) Then the critical micelle concentration (CMC) was determined for each surfactant.
# as §1
Molecule,solubility,CMC
O=C(NCCC[N+]1([O-])CCOCC1)C(F)(C(F)(F)F)C(F)(F)C(F)(F)C(F)(F)C(F)(F)C(F)(F)C(F)(F)C(F)(F)F (centres unmarked) [Example E9],low solub.,
O=C([O-])CC[N+]1(CCCNC(=O)C(F)(C(F)(F)F)C(F)(F)C(F)(F)C(F)(F)C(F)(F)C(F)(F)C(F)(F)C(F)(F)F)CCOCC1 (centres unmarked) [Example K3],,1000 ppm
O=C(NCCC[N+]1(CCO)CCOCC1)C(F)(C(F)(F)F)C(F)(F)C(F)(F)C(F)(F)C(F)(F)C(F)(F)C(F)(F)C(F)(F)F (centres unmarked) [Example F5],,1000 ppm
"C[N+](C)([O-])CCCNC(=O)C(F)(C(F)(F)C(F)(F)C(F)(F)F)C(F)(F)C(F)(F)C(F)(F)C(F)(F)C(F)(F)C(F)(F)C(F)(F)F (centres unmarked) [Example E7, C7 F15 CF(C3 F7)CONH(CH2)3 N^+ (CH3)2 O^-]",low solub.,

# Same assay, conditions: Table 3; deionized water, at CMC
row,Molecule,Surf Tens. (surface tension at the CMC)
1,"C[N+](C)([O-])CCCNC(=O)C(F)(C(F)(F)F)C(F)(F)C(F)(F)C(F)(F)C(F)(F)C(F)(F)C(F)(F)C(F)(F)C(F)(F)F (centres unmarked) [Example E4, C8 F17 CF(CF3)CONH(CH2)3 N^+ (CH3)2 O^-]",16.5 dynes/cm
2,O=C(NCCOC(=O)C(F)(C(F)(F)F)C(F)(F)C(F)(F)C(F)(F)C(F)(F)C(F)(F)C(F)(F)C(F)(F)F)c1cc[n+]([O-])cc1 (centres unmarked) [Example E10],14.5 dynes/cm
3,"CN(C)CCCN(CCCN(C)C)C(=O)C(F)(C(F)(F)F)C(F)(F)C(F)(F)C(F)(F)C(F)(F)C(F)(F)C(F)(F)C(F)(F)F (centres unmarked) [Example F9, C7 F15 CF(CF3)CON[C3 H6 N^+ (CH3)2 H]2 2[^- OOCCH3]]",22.0 dynes/cm
4,O=C(NCCOC(=O)C(F)(C(F)(F)F)C(F)(F)C(F)(F)C(F)(F)C(F)(F)C(F)(F)C(F)(F)F)c1cc[n+]([O-])cc1 (centres unmarked) [Example E11],15.5 dynes/cm
5,C[N+](C)(CCCN(CCC[N+](C)(C)CCC(=O)[O-])C(=O)C(F)(C(F)(F)F)C(F)(F)C(F)(F)C(F)(F)C(F)(F)C(F)(F)C(F)(F)C(F)(F)F)CCC(=O)[O-] (centres unmarked) [Example K4],23.6 dynes/cm
6,C[N+](C)(CCO)CCCNC(=O)C(F)(C(F)(F)F)C(F)(F)C(F)(F)C(F)(F)C(F)(F)C(F)(F)F (centres unmarked) [Example F3],17.0 dynes/cm
7,"C[N+](C)([O-])CCCNC(=O)C(F)(C(F)(F)F)C(F)(F)C(F)(F)C(F)(F)C(F)(F)C(F)(F)C(F)(F)F (centres unmarked) [Example E3, C6 F13 CF(CF3)CONH(CH2)3 N^+ (CH3)2 O^-]",16.6 dynes/cm
8,"C[N+](C)([O-])CCCNC(=O)C(F)(C(F)(F)F)C(F)(F)C(F)(F)C(F)(F)C(F)(F)C(F)(F)C(F)(F)C(F)(F)C(F)(F)C(F)(F)C(F)(F)F (centres unmarked) [Example E5, C10 F21 CF(CF3)CONH(CH2)3 N^+ (CH3)2 O^-]",17.1 dynes/cm
9,C[N+](C)(CCO)CCCNC(=O)C(F)(C(F)(F)F)C(F)(F)C(F)(F)C(F)(F)C(F)(F)C(F)(F)C(F)(F)C(F)(F)F (centres unmarked) [Example F4],19.0 dynes/cm
10,C[n+]1ccc(C(=O)NCCOC(=O)C(F)(C(F)(F)F)C(F)(F)C(F)(F)C(F)(F)C(F)(F)C(F)(F)C(F)(F)F)cc1 (centres unmarked) [Example F2],15.5 dynes/cm
11,C[n+]1ccc(C(=O)NCCOC(=O)C(F)(C(F)(F)F)C(F)(F)C(F)(F)C(F)(F)C(F)(F)C(F)(F)C(F)(F)C(F)(F)F)cc1 (centres unmarked) [Example F1],15.0 dynes/cm
12,"C[N+](C)(CCCNC(=O)C(F)(C(F)(F)F)C(F)(F)C(F)(F)C(F)(F)C(F)(F)C(F)(F)C(F)(F)C(F)(F)F)CCC(=O)[O-] (centres unmarked) [Example K1, C7 F15 CF(CF3)CONH(CH2)3 N^+ (CH3)2 C2 H4 COO^-]",16.6 dynes/cm
13,"C[N+](C)([O-])CCCN(CCO)C(=O)C(F)(C(F)(F)F)C(F)(F)C(F)(F)C(F)(F)C(F)(F)C(F)(F)C(F)(F)C(F)(F)F (centres unmarked) [Example E8, C7 F15 CF(CF3)CON(C2 H4 OH)(CH2)3 N^+ (CH3)2 O^-]",16.6 dynes/cm
14,C6 F13 CF(CF3)CON(C3 H6 SO3^-)(CH2)3 N^+ (CH3)2 H [Example K2],20.3 dynes/cm
15,O=C([O-])CC[N+]1(CCCNC(=O)C(F)(C(F)(F)F)C(F)(F)C(F)(F)C(F)(F)C(F)(F)C(F)(F)C(F)(F)C(F)(F)F)CCOCC1 (centres unmarked) [Example K3],19.2 dynes/cm
16,C8 F17 CF(CF3)CO(OCH2 CH2)16 OCH3 [Example J1],22 dynes/cm
17,O=C(NCCC[N+]1(CCO)CCOCC1)C(F)(C(F)(F)F)C(F)(F)C(F)(F)C(F)(F)C(F)(F)C(F)(F)C(F)(F)C(F)(F)F (centres unmarked) [Example F5],20.8 dynes/cm
18,O=C(OCCc1cccc[n+]1[O-])C(F)(C(F)(F)F)C(F)(F)C(F)(F)C(F)(F)C(F)(F)C(F)(F)C(F)(F)F (centres unmarked) [Example E12],18.3 dynes/cm
19,"C[N+](C)([O-])CCCNC(=O)C(F)(C(F)(F)F)C(F)(F)C(F)(F)C(F)(F)C(F)(F)C(F)(F)F (centres unmarked) [Example E2, C5 F11 CF(CF3)CONH(CH2)3 N^+ (CH3)2 O^-]",17.5 dynes/cm
20,"C[N+](C)([O-])CCCNC(=O)C(F)(C(F)(F)F)C(F)(F)C(F)(F)C(F)(F)C(F)(F)C(F)(F)C(F)(F)C(F)(F)F (centres unmarked) [Example E1, C7 F15 CF(CF3)CONH(CH2)3 N^+ (CH3)2 O^-]",16.3 dynes/cm
21,O=C(OCCc1cccc[n+]1[O-])C(F)(C(F)(F)F)C(F)(F)C(F)(F)C(F)(F)C(F)(F)C(F)(F)C(F)(F)C(F)(F)F (centres unmarked) [Example E13],15.0 dynes/cm

# Same assay, conditions: Table 5; deionized water, at CMC
row,Molecule,Surf. Tens. (surface tension at the CMC)
1,"O=C(O)C(F)(C(F)(F)F)C(F)(F)C(F)(F)C(F)(F)C(F)(F)C(F)(F)C(F)(F)C(F)(F)F (centres unmarked) [Example M27, C7 F15 CF(CF3)COO^- Li^+]",24.1 dynes/cm
2,"O=C(O)C(F)(C(F)(F)F)C(F)(F)C(F)(F)C(F)(F)C(F)(F)C(F)(F)C(F)(F)F (centres unmarked) [Example M22, C6 F13 CF(CF3)COO^- K^+]",17.5 dynes/cm
3,"O=C(O)C(F)(C(F)(F)F)C(F)(F)C(F)(F)C(F)(F)C(F)(F)C(F)(F)F (centres unmarked) [Example M21, C5 F11 CF(CF3)COO^- K^+]",22.5 dynes/cm
4,"O=C(O)C(F)(C(F)(F)F)C(F)(F)C(F)(F)C(F)(F)C(F)(F)C(F)(F)C(F)(F)C(F)(F)F (centres unmarked) [Example M26, C7 F15 CF(CF3)COO^- Na^+]",19.4 dynes/cm
5,"O=C(O)C(F)(C(F)(F)F)C(F)(F)C(F)(F)C(F)(F)C(F)(F)C(F)(F)C(F)(F)C(F)(F)C(F)(F)C(F)(F)C(F)(F)F (centres unmarked) [Example M18, C10 F21 CF(CF3)COO^- H4 N^+]",14.8 dynes/cm
6,"O=C(O)C(F)(C(F)(F)F)C(F)(F)C(F)(F)C(F)(F)C(F)(F)C(F)(F)C(F)(F)C(F)(F)F (centres unmarked) [Example M30, C7 F15 CF(CF3)COO^- 1/2[H3 N^+ C2 H4 NHC2 H4 N^+ H3]]",16.2 dynes/cm
7,"O=C(O)C(F)(C(F)(F)F)C(F)(F)C(F)(F)C(F)(F)C(F)(F)C(F)(F)C(F)(F)C(F)(F)F (centres unmarked) [Example M20, C7 F15 CF(CF3)COO^- H3 N^+ C2 H4 OH]",15.0 dynes/cm
8,"O=C(O)C(F)(C(F)(F)F)C(F)(F)C(F)(F)C(F)(F)C(F)(F)C(F)(F)C(F)(F)C(F)(F)C(F)(F)F (centres unmarked) [Example M24, C8 F17 CF(CF3)COO^- K^+]",16.4 dynes/cm
9,"O=C(O)C(F)(C(F)(F)F)C(F)(F)C(F)(F)C(F)(F)C(F)(F)C(F)(F)C(F)(F)F (centres unmarked) [Example M25, C6 F13 CF(CF3)COO^- Na^+]",19.8 dynes/cm
10,"O=C(O)C(F)(C(F)(F)F)C(F)(F)C(F)(F)C(F)(F)C(F)(F)C(F)(F)C(F)(F)C(F)(F)F (centres unmarked) [Example M23, C7 F15 CF(CF3)COO^- K^+]",15.0 dynes/cm

# Assay: Thermogravimetric analysis of neat perfluorocarboxylate salts
# Assay type: physicochemical
# Details: neat salt, 10° C./min, nitrogen
# Source text: Thermal degradation measurements were made on a series of neat perfluorocarboxylate salts, including several ax-branched open chain structures (Examples N2-N9), a primarily linear open chain structure (Example N10--Fluorad™ FC-143 Fluorochemical Surfactant, commercially available from 3M Company, St. Paul, Minn.), and a closed chain (i.e., cyclic) structure (Example N11--made by the electrochemical fluorination of benzoic acid and hydrolysis in the presence of KOH, as described in U.S. Pat. No. 2,567,011 (Diesslin et al.)).
# The perfluorocarboxylate salts were tested using a Perkin-Elmer TGA 7 thermogravimetric analysis apparatus and a salt sample size of approximately 5 mg, a heating rate of 10° C./min, and a nitrogen gas flow rate of 40-45 mL/min. Using the TGA 7 software, the following temperatures were recorded: (1) the onset temperature of decomposition, (2) the temperature at which 50% of the sample weight was lost, and (3) the temperature at which 90% of the sample weight was lost.
Molecule,onset temperature of decomposition,temperature for 50% loss,temperature for 90% loss
O=C(O)C1(F)C(F)(F)C(F)(F)C(F)(F)C(F)(F)C1(F)F [reference compound],100 °C,110 °C,120 °C
"O=C(O)C(F)(C(F)(F)F)C(F)(F)C(F)(F)C(F)(F)C(F)(F)C(F)(F)C(F)(F)C(F)(F)C(F)(F)C(F)(F)C(F)(F)F (centres unmarked) [Example M18, C10 F21 CF(CF3)COO^- H4 N^+]",164 °C,181 °C,188 °C
"O=C(O)C(F)(C(F)(F)C(F)(F)F)C(F)(F)C(F)(F)C(F)(F)C(F)(F)C(F)(F)C(F)(F)F (centres unmarked) [Example M19, C6 F13 CF(C2 F5)COO^- H4 N^+]",153 °C,171 °C,188 °C

# Same assay, conditions: neat salt, 10° C./min, nitrogen; listed as N8
Molecule,onset temperature of decomposition,temperature for 50% loss,temperature for 90% loss
"O=C(O)C(F)(C(F)(F)F)C(F)(F)C(F)(F)C(F)(F)C(F)(F)C(F)(F)F (centres unmarked) [Example M28, C5 F11 CF(CF3)COO^- Na^+]",236 °C,250 °C,263 °C

# Same assay, conditions: neat salt, 10° C./min, nitrogen; listed as N9
Molecule,onset temperature of decomposition,temperature for 50% loss
"O=C(O)C(F)(C(F)(F)F)C(F)(F)C(F)(F)C(F)(F)C(F)(F)C(F)(F)F (centres unmarked) [Example M21, C5 F11 CF(CF3)COO^- K^+]",167 °C,178 °C

# Same assay, conditions: neat salt; stopped at 85% weight loss as remaining salt, KF, is not volatile
row,Molecule,temperature for 90% loss (stopped at 85% weight loss)
1,"O=C(O)C(F)(C(F)(F)F)C(F)(F)C(F)(F)C(F)(F)C(F)(F)C(F)(F)F (centres unmarked) [Example M21, C5 F11 CF(CF3)COO^- K^+]",188 °C
